Reference: PubChem BioAssay AID256 (DTP/NCI, 2004)
Where “and” joins values, the source holds several entries; their conditions need not be identical. Equal entries are not always repeated. Inconclusive results and toxic doses are left out.

Test system: CD2F1 mice, L1210 leukemia ip, survival T/C
Assay: NCI In Vivo Anticancer Drug Screen. Data for tumor model L1210 Leukemia (intraperitoneal) in CD2F1 (CDF1) mice
Details: higher = longer survival
In short: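 Transplantable tumor in mice; compound-treated vs vehicle-treated groups. Read-out = treated/control ratio of the measured endpoint.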

[1] = endpoint: mean survival time, dose: 12.5 mg/kg/injection, schedule: Q01DX009 (ip), vehicle: saline with Tween-80
[2] = endpoint: mean survival time, dose: 50.0 mg/kg/injection, schedule: Q01DX009 (ip), vehicle: saline with Tween-80
[3] = endpoint: mean survival time, dose: 100.0 mg/kg/injection, schedule: Q01DX009 (ip), vehicle: saline with Tween-80
[4] = endpoint: mean survival time, dose: 200.0 mg/kg/injection, schedule: Q01DX009 (ip), vehicle: saline with Tween-80
[5] = endpoint: mean survival time, dose: 100.0 mg/kg/injection, schedule: Q04DX003 (ip), vehicle: saline
[6] = endpoint: mean survival time, dose: 200.0 mg/kg/injection, schedule: Q04DX003 (ip), vehicle: saline

Q: For CSc1nc(Cl)cc(Sc2nc(N)nc3nc[nH]c23)n1, which T/C (endpoint: mean survival time, dose: 18.75 mg/kg/injection, schedule: Q01DX009 (ip), vehicle: Klucel (hydroxypropylcellulose) (HPC)) is on record?
A: 173 % of control

Q: What about the T/C (endpoint: mean survival time, dose: 37.5 mg/kg/injection, schedule: Q01DX009 (ip), vehicle: Klucel (hydroxypropylcellulose) (HPC)) of the same compound?
A: 175 % of control

Q: What about the T/C (endpoint: mean survival time, dose: 150.0 mg/kg/injection, schedule: Q01DX009 (ip), vehicle: Klucel (hydroxypropylcellulose) (HPC)) of the same compound?
A: 97 % of control

Q: What does the source list for COc1cc(Cl)ccc1C?
A: T/C [1]: 97 % of control; T/C (endpoint: mean survival time, dose: 25.0 mg/kg/injection, schedule: Q01DX009 (ip), vehicle: saline with Tween-80): 97 % of control; T/C [2]: 95 % of control; T/C [3]: 100 % of control; T/C [4]: 91 % of control

Q: CCN1CCC(CC)(CN2c3ccccc3Sc3ccc(Cl)cc32)C1 (stereo not given) was tested. Which T/C [5] did it give?
A: 100 % of control

Q: And the T/C [6]?
A: 96 % of control

Q: Which T/C (endpoint: median survival time, dose: 25.0 mg/kg/injection, schedule: Q04DX003 (ip), vehicle: saline with Tween-80) does the source give for CCOC(=O)C1C2CC(O)C(O)CC21 (stereo not given) here?
A: 90 % of control

Q: And the T/C (endpoint: median survival time, dose: 50.0 mg/kg/injection, schedule: Q04DX003 (ip), vehicle: saline with Tween-80)?
A: 90 % of control

Q: Which T/C (endpoint: mean survival time, dose: 75.0 mg/kg/injection, schedule: Q01DX001 (ip), vehicle: other) does the source give for CCCCCCCCCCCCCC(=O)O.[Pb] here?
A: 98 % of control

Q: What about the T/C (endpoint: mean survival time, dose: 150.0 mg/kg/injection, schedule: Q01DX001 (ip), vehicle: other) of the same compound?
A: 101 % of control

Q: What about the T/C (endpoint: mean survival time, dose: 300.0 mg/kg/injection, schedule: Q01DX001 (ip), vehicle: other) of the same compound?
A: 101 % of control

Q: With CSCCC(NC(=O)CN)C(=O)O (stereo not given) as the compound, how does the T/C [2] read?
A: 96 % of control

Q: What about the T/C [3] of the same compound?
A: 92 % of control

Q: What about the T/C [4] of the same compound?
A: 100 % of control

Q: Which T/C [3] does the source give for O=C(COc1ccccc1)N/N=C/c1ccccc1O here?
A: 92 % of control

Q: For C=CCCCCCCCCC(=O)NCC[N+](C)(C)C, which T/C (endpoint: mean survival time, dose: 6.25 mg/kg/injection, schedule: Q01DX009 (ip), vehicle: saline) is on record?
A: 104 % of control

Q: And the T/C (endpoint: mean survival time, dose: 6.25 mg/kg/injection, schedule: Q04DX003 (ip), vehicle: saline)?
A: 96 % of control

Q: What about the T/C (endpoint: mean survival time, dose: 12.5 mg/kg/injection, schedule: Q01DX009 (ip), vehicle: saline) of the same compound?
A: 101 % of control

Q: What about the T/C (endpoint: mean survival time, dose: 12.5 mg/kg/injection, schedule: Q04DX003 (ip), vehicle: saline) of the same compound?
A: 97 % of control

Q: And the T/C (endpoint: mean survival time, dose: 25.0 mg/kg/injection, schedule: Q01DX009 (ip), vehicle: saline)?
A: 106 % of control

Q: And the T/C (endpoint: mean survival time, dose: 25.0 mg/kg/injection, schedule: Q04DX003 (ip), vehicle: saline)?
A: 102 % of control

Q: [Co+3].[NH-]CC(=O)O.[NH-]CC(=O)O.[NH-]CC(=O)O was tested. Which T/C (endpoint: mean survival time, dose: 25.0 mg/kg/injection, schedule: Q04DX002 (ip), vehicle: saline with Tween-80) did it give?
A: 104 % of control and 101 % of control

Q: What about the T/C (endpoint: mean survival time, dose: 50.0 mg/kg/injection, schedule: Q04DX002 (ip), vehicle: saline with Tween-80) of the same compound?
A: 104 % of control and 96 % of control

Q: And the T/C (endpoint: mean survival time, dose: 100.0 mg/kg/injection, schedule: Q04DX002 (ip), vehicle: saline with Tween-80)?
A: 104 % of control and 106 % of control

Q: And the T/C (endpoint: mean survival time, dose: 200.0 mg/kg/injection, schedule: Q04DX002 (ip), vehicle: saline with Tween-80)?
A: 117 % of control

Q: What does the source list for OC1(c2c(F)c(F)c(F)c(F)c2F)C2CCC1CC2 (stereo not given)?
A: T/C (endpoint: mean survival time, dose: 37.5 mg/kg/injection, schedule: Q04DX002 (ip), vehicle: saline with Tween-80): 98 % of control; T/C (endpoint: mean survival time, dose: 75.0 mg/kg/injection, schedule: Q04DX002 (ip), vehicle: saline with Tween-80): 110 % of control; T/C (endpoint: mean survival time, dose: 150.0 mg/kg/injection, schedule: Q04DX002 (ip), vehicle: saline with Tween-80): 98 % of control; T/C (endpoint: mean survival time, dose: 300.0 mg/kg/injection, schedule: Q04DX002 (ip), vehicle: saline with Tween-80): 102 % of control

Q: With CCOC(=O)/C=C1\NC(=O)N(CCCN2C(=O)N/C(=C\C(=O)OCC)C2=O)C1=O as the compound, how does the T/C (endpoint: mean survival time, dose: 3.13 mg/kg/injection, schedule: Q01DX009 (ip), vehicle: saline with Tween-80) read?
A: 95 % of control

Q: And the T/C (endpoint: mean survival time, dose: 6.25 mg/kg/injection, schedule: Q01DX009 (ip), vehicle: saline with Tween-80)?
A: 98 % of control

Q: And the T/C [1]?
A: 95 % of control

Q: And the T/C [2]?
A: 92 % of control

Q: O=C(CC(Cl)(C(F)(F)F)C(F)(F)F)c1cccc([N+](=O)[O-])c1 was tested. Which T/C (endpoint: mean survival time, dose: 12.5 mg/kg/injection, schedule: Q01DX001 (ip), vehicle: saline with Tween-80) did it give?
A: 103 % of control

Q: And the T/C (endpoint: mean survival time, dose: 25.0 mg/kg/injection, schedule: Q01DX001 (ip), vehicle: saline with Tween-80)?
A: 100 % of control

Q: And the T/C (endpoint: mean survival time, dose: 50.0 mg/kg/injection, schedule: Q01DX001 (ip), vehicle: saline with Tween-80)?
A: 97 % of control and 105 % of control

Q: With COC1OC2COC(c3ccccc3)OC2C2OC12 (stereo not given) as the compound, how does the T/C [3] read?
A: 94 % of control

Q: And the T/C [4]?
A: 92 % of control

Q: And the T/C (endpoint: mean survival time, dose: 400.0 mg/kg/injection, schedule: Q01DX009 (ip), vehicle: saline with Tween-80)?
A: 97 % of control

Q: For COC1OC2COC(c3ccccc3)OC2C(OS(C)(=O)=O)C1OS(C)(=O)=O (stereo not given), which T/C (endpoint: mean survival time, dose: 100.0 mg/kg/injection, schedule: Q01DX001 (ip), vehicle: saline with Tween-80) is on record?
A: 103 % of control

Q: And the T/C (endpoint: mean survival time, dose: 200.0 mg/kg/injection, schedule: Q01DX001 (ip), vehicle: saline with Tween-80)?
A: 105 % of control

Q: And the T/C (endpoint: mean survival time, dose: 400.0 mg/kg/injection, schedule: Q01DX001 (ip), vehicle: saline with Tween-80)?
A: 101 % of control

Q: For COc1cccc(C=Nc2ccc(C)cc2)c1O.COc1cccc(C=Nc2ccc(C)cc2)c1O.[Co], which T/C (endpoint: mean survival time, dose: 25.0 mg/kg/injection, schedule: Q04DX003 (ip), vehicle: saline with Tween-80) is on record?
A: 91 % of control

Q: What about the T/C (endpoint: mean survival time, dose: 50.0 mg/kg/injection, schedule: Q04DX003 (ip), vehicle: saline with Tween-80) of the same compound?
A: 88 % of control

Q: And the T/C (endpoint: mean survival time, dose: 50.0 mg/kg/injection, schedule: Q04DX003 (ip), vehicle: saline)?
A: 102 % of control

Q: And the T/C (endpoint: mean survival time, dose: 100.0 mg/kg/injection, schedule: Q04DX003 (ip), vehicle: saline with Tween-80)?
A: 94 % of control

Q: What about the T/C [5] of the same compound?
A: 98 % of control

Q: And the T/C (endpoint: mean survival time, dose: 200.0 mg/kg/injection, schedule: Q04DX003 (ip), vehicle: saline with Tween-80)?
A: 94 % of control

Q: And the T/C [6]?
A: 96 % of control

Q: And the T/C (endpoint: mean survival time, dose: 400.0 mg/kg/injection, schedule: Q04DX003 (ip), vehicle: saline with Tween-80)?
A: 99 % of control

Q: And the T/C (endpoint: mean survival time, dose: 400.0 mg/kg/injection, schedule: Q04DX003 (ip), vehicle: saline)?
A: 98 % of control
